Test [1] concerns obese C57BL/6J mice. Description: Diet-induced obesity, body weight on high-fat diet. The test is classed as in vivo, mouse. Conditions: for body weight in obese mice: HFD 28 weeks, analogue 75 μM in feeder bottles from 10th week, versus HFD only. As to the method:
C57BL/6J male mice, aged between 6 to 10 weeks (16-20 g), were obtained from Janvier Labs (France). They were housed individually in a controlled environment with a 12 h light/dark cycle with food (SAFE, France) and water ad libitum. The palm oil (Huilerie Vigean, France) was the main fat component in high-fat diets. The high-fat diet was prepared weekly and stored at 4° C. until further use. The study was conducted as per Declaration of Helsinki and European ethical guidelines for the care and use of animals for experimentation. All the experimental protocols (protocol number: 16158) were approved by the Regional Ethical Committee of the University of Burgundy (Dijon, France).
The mice were grouped at random (n=10/group) and fed with either of the following diets: standard diet (STD) or high-fat diet (HFD). The body weight, food, and water intake were measured, weekly.
(§1) After 10 weeks of feeding the diets, obese animals were divided into two groups: one groups continued to be fed on the same HFD; however, another group was fed on the same diet and received either NKS-3 or NKS-5) until 28th of weeks of experimentation. At the end, the animals were sacrificed, under a fasting condition, and used for different analysis in blood and different tissues.
In order to elucidate the beneficial effects and especially during obesity, experiments were conducted on obese C57BL/6J mice. […] In order to test the curative/interventional effects on obesity, the animals were divided into two groups: one group that consumed only the high-fat diet (HFD) and the other consuming the same diet and also receiving 3a or 2a in ad libitum baby bottles/feeders. From the 10th week of the diet, we introduced lipid analogues into the bottles at 75 μM that corresponded to their preference in the double choice test. […] In addition, the decrease in obesity was maintained until the 28th week of feeding a HFD (FIGS. 6A and 6B). The study was stopped after the 28th week of the diet because the animals reached the age of 34 weeks and beyond that age, the aging factor may interfere with the growth.

In test [2] the test system is C-reactive protein (CRP). Description: CRP concentration in sera of obese mice. The test is classed as in vivo, mouse. Conditions: obese mice on HFD, versus HFD only. As to the method:
as §1
The CRP concentration was determined in sera by an automatic analyzer (Gilford Model 2000 system, a Beckman System T.R).

Test [3] has as its target T1, GPR120 (Mus musculus, UniProt Q7TMA4).
T1 construct: freshly isolated and primary cultured mice type II taste bud cells (expressing GPR120 and CD36) are used; endogenous in cells; host or cells: primary mouse taste bud cells from fungiform papillae
T1 sequence (Q7TMA4 1-361): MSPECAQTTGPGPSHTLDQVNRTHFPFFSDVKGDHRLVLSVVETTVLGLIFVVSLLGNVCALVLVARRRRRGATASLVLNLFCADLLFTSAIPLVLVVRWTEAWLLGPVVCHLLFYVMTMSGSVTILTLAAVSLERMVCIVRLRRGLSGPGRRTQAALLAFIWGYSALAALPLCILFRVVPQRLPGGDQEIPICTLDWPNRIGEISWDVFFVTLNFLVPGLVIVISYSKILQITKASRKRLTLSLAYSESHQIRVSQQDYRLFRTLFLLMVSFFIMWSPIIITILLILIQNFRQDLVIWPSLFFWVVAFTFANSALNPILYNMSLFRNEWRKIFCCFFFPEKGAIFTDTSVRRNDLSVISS
Description: Ca2+ signaling in mouse taste bud cells in presence or absence of the GPR120 antagonist AH7614. Conditions: AH7614 20 μM, compound at 50 μM, cells pre-incubated 15 minutes. The test is classed as cell-based. The procedure:
(§2) The mouse taste bud cells were seeded in 24-well plates (with glass bottom), containing poly-D-lysine for better adhesion to the surface. After 24 h, taste cells were incubated for 45 minutes with a fluorescent probe, Fura-2/AM (1 μM) in calcium buffer (110 mM NaCl, 5.4 mM, KCl, 25 mM, NaHCO3, 0.8 mM, MgCl2, 0.4 mM, KH2PO4, 20 mM, Hepes-Na, 0.33 mM, NaHPO4, 1.2 mM, CaCl2), pH 7.4). Then, the cells are washed with phosphate buffer saline (PBS) and taken up in calcium buffer.
Especially, the increases in [Ca^2+]i were measured as follows: the mice taste bud cells were cultured on Willico-Dish wells with a glass bottom and loaded with a fluorescent probe, Fura-2/AM. The changes in intracellular Ca^2+ (F340/F380) were monitored under the Nikon microscope (TiU) by using S-fluor 40× oil immersion objective. The planes were taken at Z intervals of 0.3 μm, and NIS-Elements software was used to deconvolve the images. […] The dual excitation fluorescence imaging system was used for studies of individual cells. The changes in intracellular Ca^2+ were expressed as ΔRatio, which was calculated as the difference between the peak F340/F380 ratio. […] The results were analyzed with the NIS-elements software, the variation in [Ca^2+]i is expressed as A ratio (F340/F380) which was calculated with the difference of spectra at two wavelengths, i.e., 340 nm and 380 nm. […]

The target of test [4] is T2, CD36 (Mus musculus, UniProt Q08857).
T2 construct: freshly isolated and primary cultured mice type II taste bud cells (expressing GPR120 and CD36) are used; endogenous in cells; host or cells: primary mouse taste bud cells from fungiform papillae
As to the kind of experiment: Ca2+ signaling in mouse taste bud cells in presence or absence of the CD36 inhibitor SSO. The test is classed as cell-based. Conditions: for action of the CD36 inhibitor SSO on the increase in [Ca2+]i induced by the compound: 20 μM SSO, mouse taste bud cells, Fura-2/AM; for CD36 agonist character: concluded from suppression by SSO. The procedure:
as §2
(§3) Especially, the increases in [Ca^2+]i were measured as follows: the mice taste bud cells were cultured on Willico-Dish wells with a glass bottom and loaded with a fluorescent probe, Fura-2/AM. The changes in intracellular Ca^2+ (F340/F380) were monitored under the Nikon microscope (TiU) by using S-fluor 40× oil immersion objective. The planes were taken at Z intervals of 0.3 μm, and NIS-Elements software was used to deconvolve the images. The microscope was equipped with EM-CCD (Lucas) camera for real time recording of 16-bit digital images. The dual excitation fluorescence imaging system was used for studies of individual cells. The changes in intracellular Ca^2+ were expressed as ΔRatio, which was calculated as the difference between the peak F340/F380 ratio. The data were summarized from the large number of individual cells (20-40 cells in a single run, with 3-9 identical experiments done in at least three cell preparations). The results were analyzed with the NIS-elements software, the variation in [Ca^2+]i is expressed as A ratio (F340/F380) which was calculated with the difference of spectra at two wavelengths, i.e., 340 nm and 380 nm.
CD36: in order to assess if the oleic acid derivatives according to the invention exert their actions via CD36, the sulfo-N-succinimidyl oleate (SSO) was used. SSO is a CD36 inhibitor/blocker/antagonist.
Experiments were performed in the presence or absence of SSO with respect to calcium signaling to verify whether our analogs act well via this lipid receptor. Especially, for this assay with compounds 3a, 2a and oleic acid (control) were tested.

The subject of test [5] is mice. Description: Two-bottle preference test. Conditions: for gustatory preference versus control solution (xanthan gum) / concentration preferred (optimal preference) in two-bottle preference test: 12 hours; for gustatory preference versus control solution (xanthan gum): 10 to 100 μM; for concentration preferred (optimal preference) in two-bottle preference test: versus xanthan gum control. The test is classed as in vivo, mouse. As to the method: Eight weeks old, male mice (C57BI/6 black) were purchased from the “Janvier Elevage” (Le Mans) and used for these experiments.
The mice are placed individually in cages in a controlled environment (humidity and constant temperature) and have free access to a standard diet. 6 hours before the tests, the mice are deprived of water.
During the behavioral experiments, the mice were offered two bottles simultaneously for 12 hours (night period).
The mice are subjected to a choice between the “control” solution and the experimental solution (FIG. 4 and FIG. 5). • control solutions contain 0.3% xanthan gum, w/v, (Sigma Life Science, USA) in water to reproduce lipid texture and minimize bias due to differences in appearance between the two bottles; • the experimental solution contains, either the “test compound” according to the invention at a concentration varying from 10 to 100 μM (compound 3a, FIG. 4 or compound 2a, FIG. 5) or only xanthan gum at […] (control test). To avoid the preference for one side, the position of each bottle is changed during each test.
To estimate the consumption of control and experimental solutions, the bottles are weighed before and after each experiment. The mice are allowed to take rest for 48 hours between each experiment.

Test [6] deals with mouse taste bud cells. As to the kind of experiment: Ca2+ signaling (Fura-2/AM, F340/F380) in mouse taste bud cells. The format is cell-based. Conditions: for fat taste receptor(s) through which the compound acts: Ca2+ signaling with SSO or AH7614; for increase in intracellular free calcium concentration [Ca2+]i (F340/F380): mouse taste bud cells loaded with Fura-2/AM. As to the method:
The technique to isolate taste bud cells from mouse fungiform papillae has been described in the publication of El-Yassimi A, Hichami A, Besnard P, Khan N A. “Linoleic acid” induces calcium signaling, Src kinase phosphorylation, and neurotransmitter release in mouse CD36-positive gustatory cells”—J. Biol. Chem. 2008 May 9, 283(19), 12949-59.
Briefly, lingual epithelium was separated by enzymatic dissociation which contained the following: elastase and dispase mixture, 2 mg/ml each, in Tyrode's buffer (120 mM NaCl; 5 mM KCl; 10 mM HEPES ((4-(2-hydroxyethyl)-1-piperazineethanesulfonic acid); 1 mM CaCl2); 1 mM MgCl2; 10 mM glucose; 10 mM Na pyruvate, pH 7.4). The taste bud cells were isolated by incubating lingual epithelium in RPMI 1640 medium containing 2 mM EDTA, 1.2 mg/ml elastase, 0.6 mg/ml collagenase (type I), and 0.6 mg/ml trypsin inhibitor at 37° C. for 10 minutes, followed by centrifugation (600 g, 10 minutes). The cell populations, after separation, were suspended in fresh RPMI 1640 medium containing 10% fetal calf serum, 200 U/ml penicillin, and 0.2 mg/ml streptomycin, seeded onto a Poly-D-Lysine-coated dishes, and cultured for 24 hours. At the end of this period, the cells were used for the experiments or stained with trypan blue to assess their viability.
as §2
The changes in intracellular Ca^2+ (F340/F380) were monitored under a Nikon microscope (TiU) by using an S Fluor 40× oil immersion objective.
as §3

“Also recorded” adds a separate entry of the source.

T2 sequence (Q08857 whole entry): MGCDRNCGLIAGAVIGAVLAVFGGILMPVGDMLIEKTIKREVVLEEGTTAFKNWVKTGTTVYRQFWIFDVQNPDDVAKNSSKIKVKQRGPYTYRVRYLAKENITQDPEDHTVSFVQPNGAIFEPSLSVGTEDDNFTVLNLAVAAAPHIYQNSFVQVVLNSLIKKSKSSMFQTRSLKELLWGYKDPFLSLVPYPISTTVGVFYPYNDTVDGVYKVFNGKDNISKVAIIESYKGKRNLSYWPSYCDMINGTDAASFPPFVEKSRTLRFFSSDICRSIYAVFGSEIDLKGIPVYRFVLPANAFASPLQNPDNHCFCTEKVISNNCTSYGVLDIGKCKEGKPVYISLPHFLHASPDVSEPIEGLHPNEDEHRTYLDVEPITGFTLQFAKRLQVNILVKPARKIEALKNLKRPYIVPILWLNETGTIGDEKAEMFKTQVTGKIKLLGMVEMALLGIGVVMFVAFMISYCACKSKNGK

Regarding `CCCCCCCC/C=C\CCCCCCCC(=O)OCC1(C)COC1` [Compound 2a, (Z)-(3-methyloxetan-3-yl)methyl octadec-9-enoate], the “body weight in obese mice” value in test [1] is reported as “significant decrease in body weight”. Besides, the “anti-obesity effect, comparison of the two analogues” value in test [1] (HFD, 75 μM in feeder bottles) is on record as “more powerful than 3a”. The “concentration of circulating CRP” value in test [2] was “significantly decreased”. For the same molecule, the “effect of the GPR120 inhibitor AH7614 on the increase in [Ca2+]i induced by the compound” value in test [3] is “significantly curtailed, but not suppressed”. In test [4], the “action of the CD36 inhibitor SSO on the increase in [Ca2+]i induced by the compound” value was “partially blocked; also recorded: curtailed, but not completely suppressed” and the CD36 agonist character result is recorded as “partial agonist”. In test [5], the “gustatory preference versus control solution (xanthan gum)” value is given as “spontaneous preference” and the “concentration preferred (optimal preference) in two-bottle preference test” value turned out to be 75 µM. For the same molecule, in test [6], the “fat taste receptor(s) through which the compound acts” value is “bounds to CD36; also recorded: acts on both receptors CD36 and GPR120”; the “increase in intracellular free calcium concentration [Ca2+]i (F340/F380)” value was “rapid and significant rise in calcium signaling; also recorded: huge increase”.
For the molecule `CCCCCCCC/C=C\CCCCCCCCP(=O)(OCC)OCC` [Compound 3a, diethyl (Z)-octadec-9-en-1-yl phosphonate], the “body weight in obese mice” value in test [1] was “significant decrease in body weight”. In test [2], the “concentration of circulating CRP” value was “significantly decreased”. Further, in test [4], the “action of the CD36 inhibitor SSO on the increase in [Ca2+]i induced by the compound” value was “completely blocked; also recorded: completely suppressed” and the CD36 agonist character result is on record as “complete CD36 agonist”. Also, in test [5], the “gustatory preference versus control solution (xanthan gum)” value is given as “spontaneous preference” and the “concentration preferred (optimal preference) in two-bottle preference test” value is 75 µM. In test [6], the “fat taste receptor(s) through which the compound acts” value is “acts both to CD36 and GPR120”; the “increase in intracellular free calcium concentration [Ca2+]i (F340/F380)” value was “rapid and significant rise in calcium signaling; also recorded: huge increase”.
Consider `CCCCCCCC/C=C\CCCCCCCC(=O)O` [oleic acid], for which the “action of the CD36 inhibitor SSO on the increase in [Ca2+]i induced by the compound” value in test [4] (listed as OA) is reported as “completely blocked; also recorded: partially blocked”. The “concentration preferred in two-bottle preference test” value in test [5] is 7.7 mM. In test [6], the “increase in intracellular free calcium concentration [Ca2+]i (F340/F380)” value was “rapid and significant rise in calcium signaling”.

For the origin of these results see US12152046B2, “Oleic acid derivatives, pharmaceutical composition or food composition comprising said oleic acid derivatives, and their uses” (UNIVERSITÉ DE BOURGOGNE, priority 2018, dated 2024).
